Patent US20240336638A1, “IMIDAZOLE COMPOUND, AND INTERMEDIATE AND APPLICATION THEREOF” (priority 2021, published 2024)

System: AA-induced platelet aggregation
Test: Inhibitory effect on AA-induced platelet aggregation in rabbits in vitro
Format: cell-based, rabbit
Conditions: 1*10^−4 M; text conclusion (2)
Description: Several experimental groups were established, including a blank control group, an AA model control group, and various test compounds. Each test compound had three concentration groups: 10^−3 M, 10^−4 M, and 10^−5 M.
Rabbits were anesthetized with a 20% urethane solution (5 mL/kg body weight) through intraperitoneal injection. After being fixed in a supine position, the skin of the neck was cut about 6 cm, bluntly separated with a hemostat, and the trachea was exposed after the common carotid artery was separated. The distal end of the common carotid artery was ligated with a fine thread, and the proximal end was clamped with an arterial clamp for vascular intubation. After the intubation was fixed, the artery clamp was opened, and the blood was placed into a blood collection tube containing 3.8% trisodium citrate so that the blood was mixed well with the 3.8% trisodium citrate in a volume ratio of 9:1. […]
First, 300 μL of PPP was added to the test cup and put into the test wells, and calibrated by pressing the “PPP” key. […] The maximum aggregation rate within 4 minutes was measured. […]
The platelet aggregation inhibition rate was calculated with the following formula: […]
All data were expressed as mean standard deviation (mean b SD). […] Intergroup data were analyzed using one-way ANOVA, with P<0.05 considered as statistically significant and P<0.01 considered as highly significant.

In the case of `O=C(O)C1CN(c2ccc(Cn3ccnc3)nc2)C1` [Compound 56, 1-(6-((1H-Imidazol-1-yl)methyl)pyridin-3-yl)azetidine-3-carboxylic acid], the “significant inhibition of AA-induced platelet aggregation” value was “can significantly inhibit”.

For `O=C(O)/C=C/c1ccc(Cn2cnc(Cl)c2)cn1` [Compound 59, (E)-3-(5-((4-Chloro-1H-imidazol-1-yl)methyl)pyridin-2-yl)acrylic acid], the “significant inhibition of AA-induced platelet aggregation” value was “can significantly inhibit”.
